Source: patent publication US11149009B2, “Fused piperidinyl bicyclic and related compounds as modulators of C5A receptor” (InflaRx GmbH, priority 2019, dated 2021)

Molecular target: C5a receptor (Homo sapiens (Human), UniProt P21730)
Test: Calcium mobilization assay (C5a-induced, U937 cells)
Format: cell-based
Conditions: inhibition of C5a-induced calcium mobilization
Experimental: U937 cells (ATCC® CRL-1593.2) were cultivated in RPMI1640 medium supplemented with 10% fetal bovine serum in a standard cell culture incubator. The day before conducting the assay, Dibutyryl-cAMP (0.5 mM working concentration) was added to cell cultures. Next day, cells were spun and resuspended in RPMI 1640 to a concentration of 40,000 cells per 50 μl. 40,000 cells were plated in one well in a 96 well poly-D-lysine coated plate for two hours to allow cells to adhere. After cell adherence, cytoplasmic calcium^++ indicator (FLIPR Calcium 6 Assay Kit, Molecular Devices) was added to each well and incubated for 75 minutes at 37° C. Test compounds were diluted using a robotic liquid handler. The tips of the robotic liquid handler were changed after each mixing step. Test compounds were added into cell cultures at various concentrations (0.01 nM to 100 μM) for 15 minutes at 37° C. The cell culture plates were then incubated at room temperature for 30 minutes before being placed into Flexstation-3 plate reader (Molecular Devices). The Flexstation-3 was programmed to add recombinant C5a protein at various concentrations (1 nM to 10 nM) to cell culture plates and to monitor the change of fluorescence intensity, which correlates with cytoplasmic calcium concentration. The assay was also performed with the presence of human or animal blood components, such as human or bovine plasma or serum.
The half maximal inhibitory concentrations, i.e. IC50, were determined in biological assays, such as calcium mobilization assay. Using the calcium mobilization assay the following IC50 values were determined by the best dose-response curve fitting method. The curves were plotted using percentage inhibition of C5a-induced calcium mobilization versus various concentrations of compounds.

Chain of C5a receptor (P21730 whole entry): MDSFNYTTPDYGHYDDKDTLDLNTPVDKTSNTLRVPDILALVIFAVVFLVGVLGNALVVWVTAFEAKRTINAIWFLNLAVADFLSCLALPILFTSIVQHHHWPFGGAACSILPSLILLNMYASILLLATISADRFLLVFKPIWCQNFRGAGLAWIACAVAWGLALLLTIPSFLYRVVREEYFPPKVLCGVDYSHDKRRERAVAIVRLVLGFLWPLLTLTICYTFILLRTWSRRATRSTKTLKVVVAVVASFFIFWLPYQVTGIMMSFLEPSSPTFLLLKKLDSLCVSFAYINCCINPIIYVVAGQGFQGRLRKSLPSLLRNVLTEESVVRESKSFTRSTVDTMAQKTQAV

Compound	IC50 [nM]
Cc1ccc2c(c1)C[C@H](C(=O)Nc1ccc(C)c(C(F)(F)F)c1)[C@H](c1ccc(NC3CCCC3)cc1)N2C(=O)c1c(C)cccc1F [INF023, (2R,3S)-2-(4-(cyclopentylamino)phenyl)-1-(2-fluoro-6-methylbenzoyl)-6-methyl-N-(4-methyl-3-(trifluoromethyl)phenyl)-1,2,3,4-tetrahydroquinoline-3-carboxamide]	< 10
Cc1cccc(F)c1C(=O)N1c2cccc(F)c2C[C@H](C(=O)Nc2ccc(CO)c(C(F)(F)F)c2)[C@@H]1c1ccc(NC2CCCC2)cc1 [INF045, (2R,3S)-2-(4-(cyclopentylamino)phenyl)-5-fluoro-1-(2-fluoro-6-methylbenzoyl)-N-(4-(hydroxymethyl)-3-(trifluoromethyl)phenyl)-1,2,3,4-tetrahydroquinoline-3-carboxamide]	< 10
O=C(Nc1ccc(O)c(C(F)(F)F)c1)[C@H]1C[C@@H](C(F)(F)F)CN(C(=O)c2c(F)cccc2F)[C@H]1c1ccc(NC2CCCC2)cc1 [INF068, (2R,3S,5R)-2-(4-(cyclopentylamino)phenyl)-1-(2,6-difluorobenzoyl)-N-(4-hydroxy-3-(trifluoromethyl)phenyl)-5-(trifluoromethyl)piperidine-3-carboxamide]	< 10
Cc1cccc(F)c1C(=O)N1c2ccc(F)cc2C[C@H](C(=O)Nc2ccc(CO)c(C(F)(F)F)c2)[C@@H]1c1ccc(NC2CCCC2)cc1 [INF039, (2R,3S)-2-(4-(cyclopentylamino)phenyl)-6-fluoro-1-(2-fluoro-6-methylbenzoyl)-N-(4-(hydroxymethyl)-3-(trifluoromethyl)phenyl)-1,2,3,4-tetrahydroquinoline-3-carboxamide]	< 10
Cc1ccc(NC(=O)[C@H]2Cc3cc(F)ccc3N(C(=O)c3c(C)cccc3F)[C@H]2c2ccc(NC3CCCC3)cc2)cc1C(F)(F)F [INF022, (2R,3S)-2-(4-(cyclopentylamino)phenyl)-6-fluoro-1-(2-fluoro-6-methylbenzoyl)-N-(4-methyl-3-(trifluoromethyl)phenyl)-1,2,3,4-tetrahydroquinoline-3-carboxamide]	< 10
[2H]C1(Nc2ccc([C@H]3[C@@H](C(=O)Nc4ccc(C)c(C(F)(F)F)c4)C[C@@H](C(F)(F)F)CN3C(=O)c3c(F)cccc3F)cc2)CCCC1 [INF067, (2R,3S,5R)-2-(4-((cyclopentyl-1-d)amino)phenyl)-1-(2,6-difluorobenzoyl)-N-(4-methyl-3-(trifluoromethyl)phenyl)-5-(trifluoromethyl)piperidine-3-carboxamide]	< 10
Cc1ccc(NC(=O)[C@H]2C[C@@H](C(F)(F)F)CN(C(=O)c3c(F)cccc3F)[C@H]2c2ccc(NC3CCCC3)cc2)cc1Cl [INF071, (2R,3S,5R)—N-(3-chloro-4-methylphenyl)-2-(4-(cyclopentylamino)phenyl)-1-(2,6-difluorobenzoyl)-5-(trifluoromethyl)piperidine-3-carboxamide]	< 10
COc1ccc2c(c1)C[C@H](C(=O)Nc1ccc(C)c(C(F)(F)F)c1)[C@H](c1ccc(NC3CCCC3)cc1)N2C(=O)c1c(C)cccc1F [INF024, (2R,3S)-2-(4-(cyclopentylamino)phenyl)-1-(2-fluoro-6-methylbenzoyl)-6-methoxy-N-(4-methyl-3-(trifluoromethyl)phenyl)-1,2,3,4-tetrahydroquinoline-3-carboxamide]	< 10
Cc1cccc(F)c1C(=O)N1c2ccccc2C[C@H](C(=O)Nc2ccc(O)c(C(F)(F)F)c2)[C@@H]1c1ccc(NC2CCCC2)cc1 [INF033, (2R,3S)-2-(4-(cyclopentylamino)phenyl)-1-(2-fluoro-6-methylbenzoyl)-N-(4-hydroxy-3-(trifluoromethyl)phenyl)-1,2,3,4-tetrahydroquinoline-3-carboxamide]	< 10
Cc1ccc(NC(=O)[C@H]2Cc3ccccc3N(C(=O)c3c(C)cccc3F)[C@H]2c2ccc(NC3CCCC3)cc2)cc1C(F)(F)F [INF004, (2R,3S)-2-(4-(cyclopentylamino)phenyl)-1-(2-fluoro-6-methylbenzoyl)-N-(4-methyl-3-(trifluoromethyl)phenyl)-1,2,3,4-tetrahydroquinoline-3-carboxamide]	< 10
Cc1ccc(NC(=O)[C@H]2C[C@@H](C(F)(F)F)CN(C(=O)c3c(F)cccc3F)[C@H]2c2ccc(NC3CCCC3)cc2)cc1C(F)(F)F [INF052, (2R,3S,5R)-2-(4-(cyclopentylamino)phenyl)-1-(2,6-difluorobenzoyl)-N-(4-methyl-3-(trifluoromethyl)phenyl)-5-(trifluoromethyl)piperidine-3-carboxamide]	< 10
Cc1cccc(F)c1C(=O)N1c2ccccc2C[C@H](C(=O)Nc2ccc(CO)c(C(F)(F)F)c2)[C@@H]1c1ccc(NC2CCCC2)cc1 [INF015, (2R,3S)-2-(4-(cyclopentylamino)phenyl)-1-(2-fluoro-6-methylbenzoyl)-N-(4-(hydroxymethyl)-3-(trifluoromethyl)phenyl)-1,2,3,4-tetrahydroquinoline-3-carboxamide]	< 10
